Tested on: binding of troponin I to the actin-tropomyosin complex
Experiment: Experiment 4 and comparison example: co-precipitation (binding) of troponin I with the actin-tropomyosin complex in the presence of EGTA
Parameters: species or system swine
Settings: 10 mM EGTA, 100,000×g 120 min 25° C.
Description: The actin-tropomyosin complex and the troponin C-I complex are usually detected by analyzing the precipitate obtained by ultracentrifugation of a mixture containing the actin-tropomyosin complex and the troponin C-I complex for 120 minutes at 100,000×g at 25° C. The binding of the troponin C-I complex to the actin-tropomyosin complex in muscle tissues can be confirmed by the detected actin-tropomyosin complex and the detected troponin C-I complex. For example, when a mixture containing the actin-tropomyosin complex and the troponin C-I complex is ultracentrifuged in the presence of EGTA as a calcium chelating agent (in other words, in the absence of calcium ions), the actin-tropomyosin complex and the troponin C-I complex combine each other to precipitate together. Detection of troponin I in the precipitate using SDS-gel electrophoresis allows confirmation that the precipitate contains a complex formed by the actin-tropomyosin complex and the troponin C-I complex.
A precipitate due to binding of the actin-tropomyosin complex and troponin I is usually not formed when a mixture containing the actin-tropomyosin complex, troponin and propranolol (a β-blocker) used as a therapeutic agent for heart failure is ultracentrifuged at 100,000×g for 120 minutes 25° C.
Swine muscle-derived actin, chicken gizzard-derived tropomyosin and swine myocardium-derived troponin used in this experiment were purchased from Sigma-Aldrich Corporation, and other unspecified reagents used in this experiment were purchased from Wako Pure Chemical Industries Ltd.
A 500 μl sample was prepared by adding 4.2 μg of actin, 2.1 μg of tropomyosin and 14 μg of troponin to 500 μl of a reaction solution containing 60 mM KCl, 20 mM MOPS (3-morpholinopropanesulfonic acid), 2 mM of MgCl2, 0.05 μg of pepstatin A, and 15 mM 2-mercaptoethanol. After centrifugation of this sample at 2,000×g for 10 minutes at 25° C., the precipitate was removed and the resulting supernatant was distributed to separate test tubes containing 10 mM of EGTA, and each tube was determined as a test sample.
Each test sample was reacted for 120 minutes at 25° C. and centrifuged at 100,000×g for 120 minutes at 25° C., and the supernatants were removed. After reaction solution was gently added to the removed precipitate so as not to suspend the precipitate, the precipitate was again removed by suction, washed, and determined as a test precipitate.
A sample buffer for polyacrylamide gel electrophoresis (SDS-PAGE) was added to each washed test precipitate and mixed well to suspend the test precipitate. The resulting suspension was electrophoresized on a gel (PAG MINI “No. 1” 10/20) for about 1 hour at 40 mA. After electrophoresis, the suspension was silver-stained using “Daiichi” 2D-silver staining reagent (Daiichi Pure Chemicals Co., Ltd), and washed with distilled water and dried. The amount of precipitate in each silver-stained protein band obtained by gel electrophoresis was quantitated using a densitometer.
The amounts of precipitate of troponin I in the second to fifth test precipitates were calculated as ratios of the amount of precipitate of troponin I in the first test precipitate, which was obtained without the compound (the concentration of the compound was 0 M).
The affinity of troponin I for the actin-tropomyosin complex was measured using the same method as in Experiment 4, but using propranolol (a β-blocker which is used as a therapeutic agent for heart failure) for comparison with the compound in the invention.
A 500 μl sample was prepared by adding 4.2 μg of actin, 2.1 μg of tropomyosin and 14 μg of troponin I to 500 μl of a reaction solution containing 60 mM KCl, 20 mM MOPS (3-morpholinopropanesulfonic acid), 2 mM MgCl2, 0.05 μg of pepstatin A, and 15 mM 2-mercaptoethanol. […]

COc1ccc2c(c1)CN(C(=O)CCN1CCC(Cc3ccccc3)CC1)CCS2 [the compound, 4-[3-(4-benzylpiperidine-1-yl)propionyl]-7-methoxy-2,3,4,5-tetrahydro-1,4-benzothiazepine]
Precipitate of troponin I (ratio to the sample without drug) (drug concentration 10^−4 mol): 2.8 | Precipitate of troponin I (ratio to the sample without drug) (drug concentration 10^−5 mol): 2.2 | Precipitate of troponin I (ratio to the sample without drug) (drug concentration 10^−6 mol): 1.8 | Precipitate of troponin I (ratio to the sample without drug) (drug concentration 10^−7 mol): 1.2

Reference: patent US20070219180A1, “Muscle Relaxtion Accelerator and Therapeutic Agent for Muscular Tissue Diseases Such as Muscle Relaxation Failure” (priority 2004, published 2007)
